Experiment [1] deals with T1, MAB_4111c (Tle) (Mycobacteroides abscessus, UniProt B1MIG3).
T1 construct: full-length, 353 residues, six-histidine tag from pET30 (kept), expressed in E. coli BL21 Star DE3; partially purified Ni-bead-enriched fraction
Description: reverse reaction, formation of dTDP-Rha (data not shown). It is filed as biochemical. The conditions noted are these: 60 min, also the product of the forward reaction, partially purified Ni-bead fraction.

The test system of experiment [2] is T2, M. abscessus CIP104536T (R).
T2 construct: CIP104536T rough (R) morphotype
Description: microbe, parasite or virus in culture. Also on record: species or system Mycobacteroides abscessus CIP104536T; antibiotic susceptibility testing, MIC of drugs against M. abscessus strains. The settings on record: Mycobacteroides abscessus, read-out: MIC (µg/mL) (phenotypea) / R. The method, then:
(§1) M. abscessus CIP104536^T (S) and CIP104536^T (R) strains used in this study were previously sequenced and their genomic differences identified and characterized ([13], [60]). Mycobacteria were grown in Middlebrook 7H9 broth (BD) supplemented with 0.025% tyloxapol and 10% oleic acid-albumin-dextrose-catalase (OADC) enrichment (7H9^OADC) or on Middlebrook 7H10 agar (BD) containing 10% OADC (7H10^OADC) at 37 °C, with antibiotics when required. A Bio-Rad Gene pulser (25 μF, 2500 V, 800 Ω) was used to transform electrocompetent mycobacteria. After transformation, strains carrying the pMV306 ([48]) derivatives were selected on 250 μg/ml kanamycin.

Experiment [3] deals with T3, M. abscessus CIP104536T (S).
T3 construct: CIP104536T smooth (S) morphotype
Description: microbe, parasite or virus in culture. The conditions noted are these: Mycobacteroides abscessus, read-out: MIC (µg/mL) (phenotypea) / S. Also noted: species or system Mycobacteroides abscessus CIP104536T; antibiotic susceptibility testing, MIC of drugs against M. abscessus strains. The method, then:
as §1

Experiment [4] shares this test system. Description: microbe, parasite or virus in culture. The settings on record: Mycobacteroides abscessus, read-out: MIC (µg/mL) (phenotypea) / S. Also noted: species or system Mycobacteroides abscessus CIP104536T; antibiotic susceptibility testing, MIC of drugs against M. abscessus strains. How it is done: as §1
This is another data set of the same source.

In experiment [5] the test system is T2, M. abscessus CIP104536T (R). Description: microbe, parasite or virus in culture. Also noted: species or system Mycobacteroides abscessus CIP104536T; antibiotic susceptibility testing, MIC of drugs against M. abscessus strains. The settings on record: Mycobacteroides abscessus, read-out: MIC (µg/mL) (phenotypea) / R. The method, then: as §1
The source holds these as a separate data set.

Like-named read-outs stand apart in the source and are kept apart here.

T1 sequence (B1MIG3 entry or part of it): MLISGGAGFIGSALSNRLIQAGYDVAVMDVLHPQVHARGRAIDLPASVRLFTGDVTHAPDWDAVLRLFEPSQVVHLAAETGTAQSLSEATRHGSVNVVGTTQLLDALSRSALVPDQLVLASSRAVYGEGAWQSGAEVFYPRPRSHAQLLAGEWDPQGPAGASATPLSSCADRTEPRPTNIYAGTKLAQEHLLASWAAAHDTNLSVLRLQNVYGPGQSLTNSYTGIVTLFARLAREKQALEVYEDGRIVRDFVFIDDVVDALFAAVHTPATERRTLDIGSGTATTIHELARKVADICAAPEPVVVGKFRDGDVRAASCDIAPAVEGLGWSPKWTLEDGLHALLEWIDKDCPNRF

As to `Cc1cn([C@H]2C[C@H](O)[C@@H](COP(=O)(O)OP(=O)(O)O[C@H]3O[C@@H](C)[C@@H](O)[C@@H](O)[C@H]3O)O2)c(=O)[nH]c1=O` [dTDP-6-d-Tal], the “reverse reaction, formation of dTDP-Rha (data not shown)” value in experiment [1] is “reverse reaction using dTDP-6-d-Tal as a substrate and observed the formation of dTDP-Rha”.
Regarding `NC[C@H]1O[C@H](O[C@H]2[C@H](O)[C@@H](O[C@H]3O[C@H](CO)[C@@H](O)[C@H](N)[C@H]3O)[C@H](N)C[C@@H]2N)[C@H](N)C[C@@H]1O` [Tobramycin], the MIC in experiment [2] and in experiment [3] was 16 µg/mL in each case.
As for `C[C@@H](O)[C@H]1C(=O)N2C(C(=O)O)=C(SCCNC=N)C[C@H]12` [Imipenem], the MIC in experiment [2] and in experiment [3] was 64 µg/mL in each case.
With `CO/N=C(\C(=O)N[C@@H]1C(=O)N2C(C(=O)[O-])=C(C[N+]3(C)CCCC3)CS[C@H]12)c1csc(N)n1` [Cefepime], the MIC in experiment [2] and in experiment [3] was over 32 µg/mL each time.
With `CC[C@H]1OC(=O)[C@H](C)[C@@H](O[C@H]2C[C@@](C)(OC)[C@@H](O)[C@H](C)O2)[C@H](C)[C@@H](O[C@@H]2O[C@H](C)C[C@H](N(C)C)[C@H]2O)[C@](C)(OC)C[C@@H](C)C(=O)[C@H](C)[C@@H](O)[C@]1(C)O` [Clarithromycin], the MIC was over 16 µg/mL in experiment [4], over 16 µg/mL in experiment [5], 4 µg/mL in experiment [2] and 8 µg/mL in experiment [3].
For `CO[C@H]1/C=C/O[C@@]2(C)Oc3c(C)c(O)c4c(c3C2=O)C2=NC3(CCN(CC(C)C)CC3)NC2=C(NC(=O)/C(C)=C\C=C\[C@H](C)[C@H](O)[C@@H](C)[C@@H](O)[C@@H](C)[C@H](OC(C)=O)[C@@H]1C)C4=O` [Rifabutin], the MIC came out at 16 µg/mL in experiment [2] and 64 µg/mL in experiment [3].
Turning to `CN(C)c1ccc(O)c2c1C[C@H]1C[C@H]3[C@H](N(C)C)C(O)=C(C(N)=O)C(=O)[C@@]3(O)C(O)=C1C2=O` [Minocycline], the MIC in experiment [2] and in experiment [3] was over 8 µg/mL throughout.
Consider `NCC[C@H](O)C(=O)N[C@@H]1C[C@H](N)[C@@H](O[C@H]2O[C@H](CN)[C@@H](O)[C@H](O)[C@H]2O)[C@H](O)[C@H]1O[C@H]1O[C@H](CO)[C@@H](O)[C@H](N)[C@H]1O` [Amikacin], for which the figures for the MIC in experiment [2] and in experiment [3] were 32 µg/mL and 16 µg/mL, respectively.
Taken in the same sequence, the figures for `C[C@H]1c2cccc(O)c2C(=O)C2=C(O)[C@]3(O)C(=O)C(C(N)=O)=C(O)[C@@H](N(C)C)[C@@H]3[C@@H](O)[C@@H]21` [Doxycycline] were over 16 µg/mL and over 16 µg/mL.
Taken in the same sequence, the figures for `CC(=O)NC[C@H]1CN(c2ccc(N3CCOCC3)c(F)c2)C(=O)O1` [Linezolid] were 32 µg/mL and 32 µg/mL.
The like results for `COc1c(N2C[C@@H]3CCCN[C@@H]3C2)c(F)cc2c(=O)c(C(=O)O)cn(C3CC3)c12` [Moxifloxacin] were, in that order, over 8 µg/mL and over 8 µg/mL.
Turning to `CN(C)c1cc(NC(=O)CNC(C)(C)C)c(O)c2c1C[C@H]1C[C@H]3[C@H](N(C)C)C(O)=C(C(N)=O)C(=O)[C@@]3(O)C(O)=C1C2=O` [Tigecycline], the MIC in experiment [2] amounted to 1 µg/mL; in experiment [3], 0.5 µg/mL.
On to `CO[C@@]1(NC(=O)Cc2cccs2)C(=O)N2C(C(=O)O)=C(COC(N)=O)CS[C@@H]21` [Cefoxitin], for which the MIC in experiment [2] is 128 µg/mL; in experiment [3], 64 µg/mL.
The like results for `CO/N=C(\C(=O)N[C@@H]1C(=O)N2C(C(=O)O)=C(CSc3nc(=O)c(O)nn3C)CS[C@H]12)c1csc(N)n1` [Ceftriaxone] were, in that order, over 64 µg/mL and over 64 µg/mL.

Source of the values: article PMC11549994, “A dTDP-L-rhamnose 4-epimerase required for glycopeptidolipid biosynthesis in Mycobacterium abscessus” (The Journal of Biological Chemistry, 2024).
